Tested on: NOMO1
Assay: cell viability relative to DMSO control; higher = less cytotoxic
Details: 48 h
Method in brief: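 Leukemia cells (NOMO1 or SEM, 500 cells/well; P12-Ichikawa, 1000 cells/well) were seeded in 5 μl in 1536-well plates after at least four passages of adaptation to each medium. They received library compounds in DMSO by pin dosing, 11 threefold points from 47 μM to 0.79 nM. Luminescence with CellTiter-Glo One was read after 48 h at 37°C. Viability is stated per plate relative to DMSO wells, with cell-free wells as background.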

[1] = HPLM + 10% dialyzed FBS, 0.000781 µM
[2] = HPLM + 10% dialyzed FBS, 0.00234 µM
[3] = HPLM + 10% dialyzed FBS, 0.00702 µM
[4] = HPLM + 10% dialyzed FBS, 0.0211 µM
[5] = HPLM + 10% dialyzed FBS, 0.0632 µM
[6] = HPLM + 10% dialyzed FBS, 0.19 µM
[7] = HPLM + 10% dialyzed FBS, 0.569 µM
[8] = HPLM + 10% dialyzed FBS, 1.71 µM
[9] = HPLM + 10% dialyzed FBS, 5.12 µM
[10] = HPLM + 10% dialyzed FBS, 15.4 µM
[11] = HPLM + 10% dialyzed FBS, 46.1 µM
[12] = RPMI 5 mM glucose + 10% FBS, 0.000781 µM
[13] = RPMI 5 mM glucose + 10% FBS, 0.00234 µM
[14] = RPMI 5 mM glucose + 10% FBS, 0.00702 µM
[15] = RPMI 5 mM glucose + 10% FBS, 0.0211 µM
[16] = RPMI 5 mM glucose + 10% FBS, 0.0632 µM
[17] = RPMI 5 mM glucose + 10% FBS, 0.19 µM
[18] = RPMI 5 mM glucose + 10% FBS, 0.569 µM
[19] = RPMI 5 mM glucose + 10% FBS, 1.71 µM
[20] = RPMI 5 mM glucose + 10% FBS, 5.12 µM
[21] = RPMI 5 mM glucose + 10% FBS, 15.4 µM
[22] = RPMI 5 mM glucose + 10% FBS, 46.1 µM
[23] = RPMI 5 mM glucose + 10% dialyzed FBS, 0.000781 µM
[24] = RPMI 5 mM glucose + 10% dialyzed FBS, 0.00234 µM
[25] = RPMI 5 mM glucose + 10% dialyzed FBS, 0.00702 µM
[26] = RPMI 5 mM glucose + 10% dialyzed FBS, 0.0211 µM
[27] = RPMI 5 mM glucose + 10% dialyzed FBS, 0.0632 µM
[28] = RPMI 5 mM glucose + 10% dialyzed FBS, 0.19 µM
[29] = RPMI 5 mM glucose + 10% dialyzed FBS, 0.569 µM
[30] = RPMI 5 mM glucose + 10% dialyzed FBS, 1.71 µM
[31] = RPMI 5 mM glucose + 10% dialyzed FBS, 5.12 µM
[32] = RPMI 5 mM glucose + 10% dialyzed FBS, 15.4 µM
[33] = RPMI 5 mM glucose + 10% dialyzed FBS, 46.1 µM

| SMILES | cell viability [1] [%] | cell viability [2] [%] | cell viability [3] [%] | cell viability [4] [%] | cell viability [5] [%] | cell viability [6] [%] | cell viability [7] [%] | cell viability [8] [%] | cell viability [9] [%] | cell viability [10] [%] | cell viability [11] [%] | cell viability [12] [%] | cell viability [13] [%] | cell viability [14] [%] | cell viability [15] [%] | cell viability [16] [%] | cell viability [17] [%] | cell viability [18] [%] | cell viability [19] [%] | cell viability [20] [%] | cell viability [21] [%] | cell viability [22] [%] | cell viability [23] [%] | cell viability [24] [%] | cell viability [25] [%] | cell viability [26] [%] | cell viability [27] [%] | cell viability [28] [%] | cell viability [29] [%] | cell viability [30] [%] | cell viability [31] [%] | cell viability [32] [%] | cell viability [33] [%] |
| --- | --- | --- | --- | --- | --- | --- | --- | --- | --- | --- | --- | --- | --- | --- | --- | --- | --- | --- | --- | --- | --- | --- | --- | --- | --- | --- | --- | --- | --- | --- | --- | --- | --- |
| COC(=O)C/1=C(C)/N/C(=C(\C1C2=CC(=CC=C2)[N+]([O-])=O)C(=O)OCCCN3CCC(CC3)(C4=CC=CC=C4)C5=CC=CC=C5)C (stereo unspecified) | 117 | 114 | 104 | 104 | 108 | 114 | 107 | 107 | 100 | 102 | 87.1 | 101 | 99.2 | 93 | 92.4 | 97.7 | 93.5 | 88.3 | 90.7 | 83.3 | 95.3 | 81.8 | 107 | 93.8 | 95.5 | 97.1 | 107 | 109 | 101 | 94.4 | 91.2 | 90.5 | 98.7 |
| CCC(C1CCC(C)C(O1)C(C)C(O)C(C)C(=O)C(CC)C2OC\3(O[C@]4(CC[C@@](C)(O4)C5CC[C@@](O)(CC)C(C)O5)C(O)\C=C3)C(C)CC2C)C([O-])=O (stereo partly specified) | 111 | 121 | 101 | 91.2 | 119 | 109 | 117 | 68.6 | 38 | 27.3 | 26.4 | 90.5 | 34.1 | 99.9 | 90.6 | 114 | 110 | 97.1 | 67.6 | 19.7 | 16.6 | 15.3 | 96.9 | 78.6 | 132 | 153 | 119 | 75.1 | 102 | 36.2 | 15.2 | 13.5 | 11 |
| N#Cc1ccc(NC(=O)Nc2ccccc2Br)c2nn[nH]c12 |  |  |  |  |  |  |  |  |  |  |  | 101 | 122 | 102 | 107 | 117 | 119 | 122 | 114 | 107 | 120 | 119 | 94.1 | 106 | 106 | 105 | 101 | 113 | 123 | 109 | 105 | 101 | 115 |
| CN(C)CCc1c[nH]c2ccc(C[S+](=O)([O-])N3CCCC3)cc12 | 95.2 | 118 | 104 | 109 | 118 | 113 | 102 | 125 | 107 | 96.2 | 60.2 | 96.7 | 107 | 97.1 | 104 | 123 | 97.1 | 99.3 | 98.5 | 96.4 | 97.6 | 72.2 | 99.5 | 95.8 | 113 | 103 | 106 | 109 | 115 | 102 | 106 | 92 | 58.8 |
| O=C1CCCC(=O)C1C(=O)c1ccc(C(F)(F)F)cc1[N+](=O)[O-] | 138 | 110 | 105 | 107 | 103 | 106 | 111 | 118 | 113 | 93.6 | 54.3 | 102 | 105 | 99.2 | 99.9 | 104 | 98.4 | 103 | 99.4 | 98.4 | 99.4 | 92.8 | 103 | 108 | 105 | 90.1 | 92 | 111 | 105 | 113 | 96.7 | 95.3 | 92.6 |
| Clc1ccccc1C(c1ccccc1)(c1ccccc1)n1ccnc1 | 120 | 115 | 125 | 123 | 116 | 114 | 123 | 105 | 108 | 101 | 78.6 | 103 | 122 | 114 | 122 | 111 | 110 | 114 | 103 | 95 | 92.7 | 69.1 | 119 | 114 | 119 | 110 | 116 | 117 | 124 | 104 | 113 | 111 | 80.3 |
| Oc1ccc(-c2ccc(-c3cc(Nc4cccc(CNC5CC5)c4)[nH]n3)cc2)c(O)c1 | 93.9 | 104 | 108 | 116 | 127 | 116 | 102 | 93.4 | 41.4 | 40 | 60.6 | 104 | 99 | 103 | 97.4 | 115 | 109 | 114 | 96.7 | 49.5 | 27.8 | 30.8 | 99.3 | 94.4 | 106 | 109 | 107 | 102 | 119 | 107 | 71.1 | 26 | 31.1 |
| CC(C)(C)OC(=O)Nc1ccc(-c2cc(C(=O)NCCCCCCC(=O)NO)no2)cc1 | 88.5 | 89 | 84.4 | 89.8 | 98.3 | 104 | 104 | 99.4 | 68.7 | 13.7 | 4.88 | 86.7 | 80.1 | 81.1 | 84.3 | 85.3 | 88.6 | 99.4 | 80.8 | 67.1 | 11.8 | 4.55 | 86.3 | 82.8 | 89.2 | 88.2 | 99.3 | 92.1 | 101 | 72.9 | 73.8 | 13.1 | 4.05 |
| Oc1c(Cl)cc(Cl)c2cccnc12 | 102 | 113 | 115 | 93.6 | 97.4 | 92.6 | 113 | 91.4 | 96.2 | 111 | 81.6 | 91.7 | 69.2 | 105 | 94.3 | 92.6 | 98.4 | 116 | 90.6 | 84.8 | 91.6 | 62.6 | 93.1 | 90.8 | 108 | 97.7 | 103 | 94.3 | 121 | 101 | 101 | 91.7 | 56.5 |
| COC(=O)[C@H](c1ccccc1Cl)N1CCc2sccc2C1 | 103 | 110 | 127 | 117 | 109 | 104 | 117 | 37.4 | 39.5 | 24.8 | 24.8 | 87.8 | 109 | 89.1 | 92.3 | 103 | 93.7 | 97.4 | 21.7 | 20.9 | 15.9 | 14 | 81 | 90.5 | 101 | 94.4 | 100 | 103 | 102 | 36.6 | 22.8 | 23.6 | 22.2 |
| CCN(CC)CCCC(C)Nc1nc(C)cc(Nc2ccc3nc(C)cc(N)c3c2)n1 (stereo unspecified) | 79.6 | 105 | 124 | 125 | 108 | 125 | 119 | 129 | 102 | 111 | 114 | 96.3 | 111 | 110 | 113 | 123 | 116 | 124 | 110 | 120 | 108 | 111 | 106 | 108 | 114 | 111 | 122 | 115 | 120 | 107 | 115 | 94.6 | 103 |
| CN(C)[C@@H](CCOc1cccc2ccccc12)c1ccccc1 | 110 | 117 | 129 | 103 | 124 | 114 | 110 | 97.5 | 86.4 | 106 | 70.6 | 105 | 112 | 106 | 109 | 119 | 106 | 110 | 113 | 99.8 | 98.4 | 68.9 | 113 | 114 | 114 | 111 | 106 | 99 | 119 | 113 | 114 | 92.7 | 52.1 |
| COc1cc2ncnc(Nc3cccc(Cl)c3)c2cc1OC | 83 | 93.2 | 86.9 | 80.6 | 69.7 | 59 | 57 | 41.4 | 39.2 | 36 | 3.63 | 95.7 | 101 | 99.3 | 96.6 | 102 | 85.9 | 82.1 | 57.7 | 48.7 | 39.6 | 34.4 | 100 | 95 | 101 | 101 | 76.2 | 75.1 | 72.9 | 47.7 | 45.8 | 38.9 | 37.5 |
| CN1CCN(CCCN2c3ccccc3Sc3ccc(Cl)cc32)CC1.O=C(O)/C=C\C(=O)O.O=C(O)/C=C\C(=O)O | 112 | 123 | 112 | 111 | 124 | 110 | 106 | 47.9 | 42.8 | 29.9 | 32.1 | 97.8 | 106 | 112 | 107 | 109 | 101 | 108 | 81.9 | 58.3 | 24.2 | 28.4 | 94.7 | 104 | 127 | 106 | 117 | 115 | 116 | 68.9 | 73 | 28.3 | 31.9 |
